Assay results published in patent publication US12103916B2, “Antifungal compounds” (University of Kentucky Research Foundation, priority 2016, dated 2024).
Where two headings read alike, the source gives them in different places.

Test system: C. albicans ATCC 90819(R)
Assay: MIC determination, strain D
Format: cell-based, Candida albicans
Conditions: Candida albicans, ATCC90819
Method: The antifungal activity of our new azole compounds 1-9 and 24-41 was first evaluated against a panel of seven Candida albicans strains (A-G), three non-albicans Candida strains […], and three Aspergillus strains (K-M) in a concentration range of 0.03-31.2 μg/mL (Table 1). […] For all of our azole derivatives we report their MIC-0 values against C. albicans ATCC 10231 (strain A) and all Aspergillus strains (K-M), which correspond to complete growth inhibition of these fungi. […] The commercially available antifungals AmB, FLC, ITC, POS, and VOR were used as reference drugs for comparison. The MIC values presented for these five control drugs were either tested herein or correspond to our previously published data^5, 16 as indicated in Table 1.
Antifungal activity in the absence or presence of serum. The antifungal activity of the newly prepared alkylated piperazine/morpholine-azole hybrids 16-28, of intermediate 14 that we used to verify that only final compounds exert antifungal activity, as well as that of alkylated piperazine/morpholine derivatives 1-10 were first evaluated against a panel of seven C. albicans (ATCC 10231 (A), ATCC 64124(R) (B), ATCC MYA-2876(S) (C), ATCC 90819(R) (D), ATCC MYA-2310(S) (E), ATCC MYA-1237(R) (F), and ATCC MYA-1003(R) (G)), three non-albicans Candida (C. glabrata ATCC 2001 (H), C. krusei ATCC 6258 (I), and C. parapsilosis ATCC 22019 (J)), and three Aspergillus (A. flavus ATCC MYA-3631 (K), A. nidulans ATCC 38163 (L), and A. terreus ATCC MYA-3633 (M)) strains using a concentration range of 0.03-31.3 μg/mL (Table 2).
Commercially available antifungal agents such as AmB, CAS, FLC, and VOR were used as positive controls for comparison. […] It is important to note that all comparisons to follow will be done by using the MIC values reported in μg/mL as the data were collected that way. However, we also present in parentheses in Table 2 the corresponding values in micromolar.
We used the commercially available antifungal agents such as AmB, caspofungin (CAS), FLC, and VOR as positive controls for comparison. For derivatives 5-16 as well as the reference drugs AmB and CAS, we reported MIC-0 values, which correspond to no visible growth. […] In this manuscript, we performed all activity comparisons by using the MIC values reported in μg/mL (Note: the corresponding MIC values are also provided in μM into parentheses in Tables 1, 2, S1, and S2).

**Q.** What does the source list for `C[C@@H](c1ncncc1F)[C@](O)(Cn1cncn1)c1ccc(F)cc1F` [VOR, voriconazole]?
**A.** MIC (read-out: MIC (MIC-2)): 1.95 µg/mL; MIC (read-out: MIC (MIC-2), in parentheses): 5.6 µM
